Experimental data as given in patent EP0538469A1, “SULFONANILIDE DERIVATIVE AND MEDICINE” (NIPPON SHINYAKU COMPANY, LIMITED, priority 1990, dated 1991).
Where a name gives a salt, the structure may show the parent alone. Read-outs that look alike come from different tables or passages of the source. Marks after values point to notes of the source that are not given here.

Columns and labels:
mice (ddY-strain, male) = experiment: Acute toxicity, oral, mice; type: in vivo; settings: observed two weeks
Procedure: (§1) Numbers of mice (ddY-strain, male, 6-8 weeks age) and rats (SD strain, male, 6-7 weeks age) in each group were 4 and 6, respectively.
(§2) The drug to be tested was orally administered at the dose of 10 ml/kg using an oral probe to the animals which were fasted since one day before (for 16-18 hours). After giving the drug, the animals were returned to the state where both feed and water were available and the general symptom and the dead cases, if any, were checked for two weeks. The drug was suspended in physiological saline solution containing 0.5% of methylcellulose (0.5% MC) and the suspension was given to the animals by oral route.

[1] = Acute toxicity, oral, rats; type: in vivo; settings: rat, in vivo, SD rats, read-out: Rats LD₅₀
Procedure: as §1, §2

rats (SD strain, male) = experiment: Acute toxicity, oral, rats; type: in vivo; settings: observed two weeks
Procedure: as §1, §2

male rabbits [2] = experiment: Action to intra urethral pressure and blood pressure, intravenous administration; type: in vivo; settings: i.v.; for Selectivity (B/A): BP(ED30%↑) / IUP(ED150%↑); for ED (30%) / ED (150%): Oryctolagus cuniculus, iv, anesthetized male rabbits; for ED (30%): dose increasing blood pressure to an extent of 30%, read-out: BP(B) [BP(ED30%↑)] (converted); for ED (150%): dose increasing intra urethral pressure to an extent of 150%, read-out: IUP(A) [IUP(ED150%↑)]
Procedure: (§3) The experiment was conducted using male rabbits of body weight of 1.4-3.1 kg under fasted condition. The animals were fixed at backs under uretrane(1.2g/kg s.c.) anesthesia, abdomen was subjected to a midline incision and bladder was exposed. In order to prevent the urine stored in the bladder on the intra urethral pressure, the urine in the bladder was compulsorily discharged out of the body. After that, a catheter was inserted into both ureters and the urine discharged from kidney was introduced outside.
(§4) The intra urethral pressure(IUP) at the urethra tract of about 0.5-1 cm distance from the neck of the bladder was measured using a microtip transducer transducer equipped with a baloon (filled with physiological saline solution) at the top end. Further, polyethylene tube was inserted into femoral artery to measure the blood pressure (BP).
The drug to be tested was injected into the vein of ear every fifteen minutes and the maximum responses of the increasing action of intra urethral pressure tract and of the increasing action of blood pressure were measured at each dose.

male rabbits [3] = experiment: Action to intra urethral pressure and blood pressure, administration to duodenum; type: in vivo
Procedure: as §3, §4
Abdomen right above stomach was subjected to a midline incision and, after that, the drug to be tested suspended in 0.5% methyl cellulose (0.5% MC) was administered at the dose of 0.5ml/kg to the duodenum. […] The above administration to duodenum corresponded to oral administration as the administration into digestive organ in anethetized animals.

femoral artery = experiment: Contraction of isolated femoral artery (Magnus vessel, cumulative concentration/response curves); type: cell-based, rabbits; settings: Oryctolagus cuniculus, female rabbit femoral artery, contraction
Procedure: (§5) The experiment was conducted using female rabbits of 2 to 3.5 kg body weight.
(§6) The animals were killed by draining the blood out under anesthetizing with pentobarbital (30 mg/kg, by intravenous injection) and smooth muscle of urethra and femoral artery were excised. Each of the excised samples was placed in a Magnus vessel filled with a modified Krebs solution (at 37°C; under mixed gas) and both smooth muscle of urethra and femoral artery were suspended with 1 g load.
(§7) The drug to be tested was accumulated to contract the samples whereby the concentration/response curves were obtained wherefrom ED₅₀ (M) and pD₂ were calculated and the selectivity to urethra was determined.

smooth muscle of urethra = experiment: Contraction of isolated smooth muscle of urethra (Magnus vessel, cumulative concentration/response curves); type: cell-based, rabbits; settings: for EC50: Oryctolagus cuniculus, female rabbit urethra smooth muscle, contraction
Procedure: as §5, §6, §7

[4] = 1 mg/kg i.d., 10 min after administration
[5] = 1 mg/kg i.d., 20 min after administration
[6] = 1 mg/kg i.d., 30 min after administration
[7] = 1 mg/kg i.d., 60 min after administration
[8] = 1 mg/kg i.d., 90 min after administration
[9] = 1 mg/kg i.d., 120 min after administration
[10] = 1 mg/kg i.d., 180 min after administration
[11] = 3 mg/kg i.d., 10 min after administration
[12] = 3 mg/kg i.d., 20 min after administration
[13] = 3 mg/kg i.d., 30 min after administration
[14] = 3 mg/kg i.d., 60 min after administration
[15] = 3 mg/kg i.d., 90 min after administration
[16] = 3 mg/kg i.d., 120 min after administration
[17] = 3 mg/kg i.d., 180 min after administration

For CS(=O)(=O)Nc1ccc(F)c(C(O)CN)c1 (racemic) [(49A), (±)-3'-(2-Amino-1-hydorxyethyl)-4'-fluoromethanesulfonanilide hydrochloride], the “Mice Dead/ Total” value (mice (ddY-strain, male); 1000 mg/kg) was 0 / 4, the LD50 at 336 h [1] was > 500 mg/kg and the “Rats Dead/ Total” value (rats (SD strain, male); 100 mg/kg) was 0 / 6. For the same molecule, the “Rats Dead/ Total” value (rats (SD strain, male); 500 mg/kg) was 1 / 6, the “Selectivity (B/A)” value (male rabbits [2]) was 2.2 and the ED (30%) (male rabbits [2]) was 0.044 mg/kg. For the same molecule, the ED (150%) (male rabbits [2]) was 0.02 mg/kg.
For CNCC(O)c1cccc(NS(C)(=O)=O)c1 (centres unmarked) [Amidephrine, reference compound], the “Change(%) BP” value (male rabbits [3]; [4]) was 2.4%, the “Change(%) BP” value (male rabbits [3]; [5]) was -0.1% and the “Change(%) BP” value (male rabbits [3]; [6]) was 2.2%. The “Change(%) BP” value (male rabbits [3]; [7]) was 7.2* %, the “Change(%) BP” value (male rabbits [3]; [8]) was 14.3** % and the “Change(%) BP” value (male rabbits [3]; [9]) was 10.3* %. The “Change(%) BP” value (male rabbits [3]; [10]) was 3.7** %, the “Change(%) BP” value (male rabbits [3]; [11]) was 5.8% and the “Change(%) BP” value (male rabbits [3]; [12]) was 3.7%. The “Change(%) BP” value (male rabbits [3]; [13]) was 4.1%, the “Change(%) BP” value (male rabbits [3]; [14]) was 20.7** % and the “Change(%) BP” value (male rabbits [3]; [15]) was 34.4** %. For the same molecule, the “Change(%) BP” value (male rabbits [3]; [16]) was 39.1** %, the “Change(%) BP” value (male rabbits [3]; [17]) was 31.1** % and the “Change(%) IUP” value (male rabbits [3]; [4]) was 0.7%. The “Change(%) IUP” value (male rabbits [3]; [5]) was 0.6%, the “Change(%) IUP” value (male rabbits [3]; [6]) was 8.3% and the “Change(%) IUP” value (male rabbits [3]; [7]) was 47.6** %. The “Change(%) IUP” value (male rabbits [3]; [8]) was 56.8** %, the “Change(%) IUP” value (male rabbits [3]; [9]) was 46.1* % and the “Change(%) IUP” value (male rabbits [3]; [10]) was 32.1%. For the same molecule, the “Change(%) IUP” value (male rabbits [3]; [11]) was -4.5%, the “Change(%) IUP” value (male rabbits [3]; [12]) was 15.9% and the “Change(%) IUP” value (male rabbits [3]; [13]) was 47.1** %. The “Change(%) IUP” value (male rabbits [3]; [14]) was 108.5** %, the “Change(%) IUP” value (male rabbits [3]; [15]) was 107.8** % and the “Change(%) IUP” value (male rabbits [3]; [16]) was 92.7** %. The “Change(%) IUP” value (male rabbits [3]; [17]) was 92.2** %, the EC50 (femoral artery; read-out: ED₅₀ Femoral Artery(B)) was 1960 nM and the EC50 (femoral artery; read-out: pD₂ Femoral Artery(B)) was 1950 nM. The “Mice Dead/ Total” value (mice (ddY-strain, male); 1000 mg/kg) was 0 / 4, the “Mice Dead/ Total” value (mice (ddY-strain, male); 3000 mg/kg) was 3 / 4 and the LD50 at 336 h [1] was 12.4 mg/kg. For the same molecule, the “Rats Dead/ Total” value (rats (SD strain, male); 5 mg/kg) was 0 / 6, the “Rats Dead/ Total” value (rats (SD strain, male); 10 mg/kg) was 3 / 6 and the “Rats Dead/ Total” value (rats (SD strain, male); 20 mg/kg) was 4 / 6. For the same molecule, the “Rats Dead/ Total” value (rats (SD strain, male); 30 mg/kg) was 6 / 6, the “Selectivity (B/A)” value (smooth muscle of urethra; ED₅₀ femoral artery / ED₅₀ urethra) was 0.18 and the EC50 (smooth muscle of urethra; read-out: ED₅₀ Urethra(A)) was 10.8 µM. The EC50 (smooth muscle of urethra; read-out: pD₂ Urethra(A)) was 10.7 µM.
In the case of CNCC(O)c1ccc(F)c(NS(C)(=O)=O)c1.Cl (racemic) [(61A), (±)-2'-Fluoro-5'-(1-hydroxy-2-methylaminoethyl)methanesulfonanilide hydrochloride, reference compound], the LD50 at 336 h [1] is reported as > 300 mg/kg, the “Rats Dead/ Total” value (rats (SD strain, male); 300 mg/kg) is reported as 0 / 6 and the “Selectivity (B/A)” value (male rabbits [2]; hydrochloride) is reported as 1.2. For the same molecule, the ED (30%) (male rabbits [2]) was 0.037 mg/kg and the ED (150%) (male rabbits [2]) was 0.031 mg/kg.
With CS(=O)(=O)Nc1cccc(C(O)CN)c1.Cl (racemic) [(24A), (±)-3'-(2-Amino-1-hydroxyethyl)methanesulfonanilide hydrochloride, reference compound] the “Mice Dead/ Total” value (mice (ddY-strain, male); 1000 mg/kg) was 0 / 4, the “Mice Dead/ Total” value (mice (ddY-strain, male); 3000 mg/kg) was 3 / 4 and the LD50 at 336 h [1] was > 300 mg/kg. The “Rats Dead/ Total” value (rats (SD strain, male); 30 mg/kg) was 0 / 6, the “Rats Dead/ Total” value (rats (SD strain, male); 100 mg/kg) was 1 / 6 and the “Rats Dead/ Total” value (rats (SD strain, male); 300 mg/kg) was 1 / 6. For the same molecule, the “Selectivity (B/A)” value (male rabbits [2]; hydrochloride) was 1.0, the ED (30%) (male rabbits [2]) was 0.036 mg/kg and the ED (150%) (male rabbits [2]) was 0.035 mg/kg.
In the case of CS(=O)(=O)Nc1cccc([C@@H](O)CN)c1.Cl [(24B), (R)-(-)-3'-(2-Amino-1-hydroxyethyl)-methanesulfonanilide hydrochloride, reference compound], the “Mice Dead/ Total” value (mice (ddY-strain, male); 1000 mg/kg) is reported as 0 / 4, the LD50 at 336 h [1] is reported as 23.2 mg/kg and the “Rats Dead/ Total” value (rats (SD strain, male); 5 mg/kg) is reported as 0 / 6. The “Rats Dead/ Total” value (rats (SD strain, male); 10 mg/kg) was 2 / 6, the “Rats Dead/ Total” value (rats (SD strain, male); 30 mg/kg) was 4 / 6 and the “Rats Dead/ Total” value (rats (SD strain, male); 100 mg/kg) was 5 / 6. The “Selectivity (B/A)” value (male rabbits [2]; hydrochloride) was 1.0, the ED (30%) (male rabbits [2]) was 0.019 mg/kg and the ED (150%) (male rabbits [2]) was 0.019 mg/kg.
In the case of C[C@H](N)[C@H](O)c1cc(NS(C)(=O)=O)ccc1F (racemic) [(59A), (±)-erythro-3'-(2-Amino-1-hydroxypropyl)-4'-fluoromethanesulfonanilide hydrochloride], the LD50 at 336 h [1] is reported as > 100 mg/kg, the “Rats Dead/ Total” value (rats (SD strain, male); 100 mg/kg) is reported as 0 / 6 and the “Selectivity (B/A)” value (male rabbits [2]; hydrochloride) is reported as 1.9. The ED (30%) (male rabbits [2]) was 0.083 mg/kg and the ED (150%) (male rabbits [2]) was 0.044 mg/kg.
For CS(=O)(=O)Nc1cc(C(O)CN)c(F)cc1F.Cl (racemic) [(63A), (±)-5'-(2-Amino-1-hydroxyethyl)-2',4'-difluoromethanesulfonanilide hydrochloride], the LD50 at 336 h [1] was > 300 mg/kg, the “Rats Dead/ Total” value (rats (SD strain, male); 300 mg/kg) was 0 / 6 and the “Selectivity (B/A)” value (male rabbits [2]; hydrochloride) was 2.9. The ED (30%) (male rabbits [2]) was 0.19 mg/kg and the ED (150%) (male rabbits [2]) was 0.065 mg/kg.
